This note sets out measurements from BindingDB's records for doi:10.1111/cbdd.12807 (Zhejiang Hospital, 2016).

Assay [1] addresses 72 kDa type IV collagenase (Rat, UniProt P33436). Nature of the assay: enzyme-based fluorimetric assay. To be noted: pH 7.5; 25 °C. The source says: (§1) For this assay, the reagents used as follows. The substrate corresponds to Mca-Pro-Leu-Gly-Leu-Dpa-Ala-Arg 25 mm in assay buffer. This low-fluorescent peptide is cleaved by MMPs to provide Mca-Pro-Leu-Gly, which is intensely fluorescent at an excitation at 340 nm and emission at 405 nm. While the enzymes pro-MMP-2 250 pm and MMP-9 (recombinant catalytic sequence) 500 pm in assay buffer. The assay buffer consists of Tris HCl 0.1 m, pH 7.5, NaCl 0.1 m, CaCl2 10 mm, 0.05% v/v BRIJ35, APMA (p-aminophenylmercuric acetate) 1 mm. This was carried out in 96-well plate, a solution of […] at the appropriate concentration and […] was incubated together at 25 °C for 30 min, and […] of substrate solution was added and the plate was further incubated 3 h at 37 °C. The incubation solutions were quenched with acetic acid ([…] soln.) and their fluorescence was recorded with the help of a plate reader spectrometer. The inhibitory activities were calculated against a control and IC50 curves, derived from 6 different inhibitor concentrations, extrapolated by means of statistical analysis program graphpad prism (v. 4.0; San Diego, CA, USA). Each inhibitor concentration was used in triplicate and the experiments run twice.

Assay [2] addresses Matrix metalloproteinase-9 (Rattus norvegicus, UniProt P50282). As to the kind of experiment: enzyme-based fluorimetric assay. The settings on record: pH 7.5; 25 °C.
Source text: as §1

As usually defined, the IC50 is the concentration that gives 50% inhibition.

72 kDa type IV collagenase, sequence (P33436 whole entry): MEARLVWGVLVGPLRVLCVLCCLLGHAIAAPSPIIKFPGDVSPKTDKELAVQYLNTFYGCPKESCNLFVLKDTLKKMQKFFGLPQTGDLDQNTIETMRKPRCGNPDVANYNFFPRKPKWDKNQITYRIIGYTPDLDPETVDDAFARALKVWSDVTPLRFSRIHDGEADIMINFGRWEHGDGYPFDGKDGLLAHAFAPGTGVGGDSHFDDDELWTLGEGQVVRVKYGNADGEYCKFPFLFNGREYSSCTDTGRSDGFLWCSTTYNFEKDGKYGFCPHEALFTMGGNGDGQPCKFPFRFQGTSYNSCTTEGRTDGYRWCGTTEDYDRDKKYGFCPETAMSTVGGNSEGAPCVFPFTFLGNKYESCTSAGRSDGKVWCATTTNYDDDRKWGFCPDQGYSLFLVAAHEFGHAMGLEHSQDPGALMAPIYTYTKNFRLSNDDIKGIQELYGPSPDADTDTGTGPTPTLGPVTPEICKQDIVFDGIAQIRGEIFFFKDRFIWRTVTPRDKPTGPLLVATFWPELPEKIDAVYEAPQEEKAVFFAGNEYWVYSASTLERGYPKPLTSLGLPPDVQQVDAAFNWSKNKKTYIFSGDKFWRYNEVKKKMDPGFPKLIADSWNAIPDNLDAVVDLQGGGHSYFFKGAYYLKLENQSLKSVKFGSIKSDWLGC
Matrix metalloproteinase-9, sequence (P50282 whole entry): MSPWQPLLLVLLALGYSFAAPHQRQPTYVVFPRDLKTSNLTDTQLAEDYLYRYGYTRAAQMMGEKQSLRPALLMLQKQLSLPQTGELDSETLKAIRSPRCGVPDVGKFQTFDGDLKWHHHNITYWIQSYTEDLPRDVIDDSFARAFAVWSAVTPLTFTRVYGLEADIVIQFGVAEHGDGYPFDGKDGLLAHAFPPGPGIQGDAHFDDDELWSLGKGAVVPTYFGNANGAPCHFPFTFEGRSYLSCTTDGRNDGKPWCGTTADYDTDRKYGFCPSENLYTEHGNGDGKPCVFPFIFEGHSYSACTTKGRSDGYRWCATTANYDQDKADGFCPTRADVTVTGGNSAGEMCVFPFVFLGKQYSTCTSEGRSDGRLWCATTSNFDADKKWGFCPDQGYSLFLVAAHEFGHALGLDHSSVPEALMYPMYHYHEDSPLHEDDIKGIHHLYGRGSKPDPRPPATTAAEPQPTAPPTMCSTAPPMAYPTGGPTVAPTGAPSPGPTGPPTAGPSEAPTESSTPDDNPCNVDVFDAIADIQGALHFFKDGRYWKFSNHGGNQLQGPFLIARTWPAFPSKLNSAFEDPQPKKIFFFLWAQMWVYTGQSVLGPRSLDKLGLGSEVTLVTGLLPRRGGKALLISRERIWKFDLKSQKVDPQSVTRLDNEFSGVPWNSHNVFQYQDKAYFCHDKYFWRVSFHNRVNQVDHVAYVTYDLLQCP

For `COc1ccc(-c2cc(-c3ccc(NS(=O)(=O)c4ccc(C)cc4)cc3)nn2-c2nc(NCCCN)nc(NCCCN)n2)cc1` [N-(4-(1-(4,6-bis((3-aminopropyl)amino)-1,3,5-triazin-2-yl)-5-(4-methoxyphenyl)-1H-pyrazol-3-yl)phenyl)-4-methylbenzenesulphonamide (8c)], the IC50 came out at 189 nM in assay [1] and 156 nM in assay [2].
Take `COc1ccc(-c2cc(-c3ccc(NS(=O)(=O)c4ccc(C)cc4)cc3)nn2-c2nc(Nc3ccc(O)cc3)nc(Nc3ccc(O)cc3)n2)cc1` [N-(4-(1-(4,6-bis((4-hydroxyphenyl)amino)-1,3,5-triazin-2-yl)-5-(4-methoxyphenyl)-1H-pyrazol-3-yl)phenyl)-4-methylbenzenesulphonamide (8e)]: the IC50 was 8.12 nM in assay [1] and 2.34 nM in assay [2].
As for `COc1ccc(Nc2nc(Nc3ccc(OC)cc3)nc(-n3nc(-c4ccc(NS(=O)(=O)c5ccc(C)cc5)cc4)cc3-c3ccc(OC)cc3)n2)cc1` [N-(4-(1-(4,6-bis((4-methoxyphenyl)amino)-1,3,5-triazin-2-yl)-5-(4-methoxyphenyl)-1H-pyrazol-3-yl)phenyl)-4-methylbenzenesulphonamide (8f)], the IC50 was determined as 18.6 nM in assay [1] and 10.2 nM in assay [2].
In the case of `COc1ccc(-c2cc(-c3ccc(NS(=O)(=O)c4ccc(C)cc4)cc3)nn2-c2nc(Nc3ccc([N+](=O)[O-])cc3)nc(Nc3ccc([N+](=O)[O-])cc3)n2)cc1` [N-(4-(1-(4,6-bis((4-nitrophenyl)amino)-1,3,5-triazin-2-yl)-5-(4-methoxyphenyl)-1H-pyrazol-3-yl)phenyl)-4-methylbenzenesulphonamide (8h)], the IC50 in assay [1] came to 76.6 nM; in assay [2], 68.5 nM.
With `CCNc1nc(NCC)nc(-n2nc(-c3ccc(NS(=O)(=O)c4ccc(C)cc4)cc3)cc2-c2ccc(OC)cc2)n1` [N-(4-(1-(4,6-bis(ethylamino)-1,3,5-triazin-2-yl)-5-(4-methoxyphenyl)-1H-pyrazol-3-yl)phenyl)-4-methylbenzenesulphonamide (8b)], the IC50 in assay [1] came to 332 nM; in assay [2] it was 302 nM.
The corresponding values for `CNc1nc(NC)nc(-n2nc(-c3ccc(NS(=O)(=O)c4ccc(C)cc4)cc3)cc2-c2ccc(OC)cc2)n1` [N-(4-(1-(4,6-bis(methylamino)-1,3,5-triazin-2-yl)-5-(4-methoxyphenyl)-1H-pyrazol-3-yl)phenyl)-4-methylbenzenesulphonamide (8a)] are 666 nM and 625 nM.
Take `COc1ccc(-c2cc(-c3ccc(NS(=O)(=O)c4ccc(C)cc4)cc3)nn2-c2nc(Nc3ccccc3C)nc(Nc3ccccc3C)n2)cc1` [N-(4-(1-(4,6-bis(o-tolylamino)-1,3,5-triazin-2-yl)-5-(4-methoxyphenyl)-1H-pyrazol-3-yl)phenyl)-4-methylbenzenesulphonamide (8g)]: the IC50 is 67.1 nM in assay [1] and 58.2 nM in assay [2].
The matching figures for `COc1ccc(-c2cc(-c3ccc(NS(=O)(=O)c4ccc(C)cc4)cc3)nn2-c2nc(Nc3ccccc3)nc(Nc3ccccc3)n2)cc1` [N-(4-(1-(4,6-bis(phenylamino)-1,3,5-triazin-2-yl)-5-(4-methoxyphenyl)-1H-pyrazol-3-yl)phenyl)-4-methylbenzenesulphonamide (8d)]: 123 nM and 105 nM.
In the case of `COc1ccc(-c2cc(-c3ccc(NS(=O)(=O)c4ccc(C)cc4)cc3)nn2-c2nc(N3CCNCC3)nc(N3CCNCC3)n2)cc1` [N-(4-(1-(4,6-di(piperazin-1-yl)-1,3,5-triazin-2-yl)-5-(4-methoxyphenyl)-1H-pyrazol-3-yl)phenyl)-4-methylbenzenesulphonamide (8i)], the IC50 was 55.3 nM in assay [1] and 47.1 nM in assay [2].
Take `COc1ccc(-c2cc(-c3ccc(NS(=O)(=O)c4ccc(C)cc4)cc3)nn2-c2nc(N3CCOCC3)nc(N3CCOCC3)n2)cc1` [N-(4-(1-(4,6-dimorpholino-1,3,5-triazin-2-yl)-5-(4-methoxyphenyl)-1H-pyrazol-3-yl)phenyl)-4-methylbenzenesulphonamide (8j)]: the IC50 was found to be 42.3 nM in assay [1] and 31.2 nM in assay [2].
